US9096593B2, “Compounds and methods for kinase modulation, and indications therefor” (Plexxikon Inc., priority 2009, dated 2015)

Assays:
Fms kinase = Fms kinase (Homo sapiens (Human), UniProt P07333); assay: Fms kinase biochemical activity assay (AlphaScreen, biotin-(E4Y)10 phosphorylation); conditions: 100 μM ATP; read-out: Biochemical (IC50 μM) Fms
Procedure: In one assay the biochemical activity IC50 values are determined with respect to inhibition of Fms kinase activity, where inhibition of phosphorylation of a peptide substrate is measured as a function of compound concentration. Compounds to be tested, dissolved in DMSO (1 μL), are added to a white 384-well plate (Costar #3705). Working stocks of Fms kinase (Invitrogen #PV3249), biotin-(E4Y)10 substrate (Upstate Biotech, Cat#12-440), and ATP (Sigma, Cat#A-3377) are prepared in 25 mM Hepes pH 7.5, 0.5 mM MgCl2, 2 mM MnCl2, 2 mM DTT, 0.01% BSA, and 0.01% Tween-20. All components are added to the 384-well plate for a final concentration of 1 ng/well Fms, 30 nM biotin-(E4Y)10 (Upstate Biotechnology) and 100 μM ATP in a volume of 20 μL. Each sample is at 5% DMSO. The plate is then incubated for 20 minutes at 30° C. Just before use, working stocks of donor and acceptor beads from the AlphaScreen PY20 Detection Kit (PerkinElmer, Cat#676601M) are prepared in 25 mM Hepes pH 7.5, pH 7.4, 100 mM EDTA, 0.01% BSA. To stop the reaction, the plate is uncovered in the dark and 5 μL of Donor Beads solution (Streptavidin beads) is added to each well. The plate is incubated at room temperature for 20 minutes. Five microliters of Acceptor Beads solution (PY20 coated beads) are then added to each well. The final concentration of each bead is 10 μg/mL. The plates are incubated at room temperature for 60 minutes. Fluorescence signal is recorded on the Envision reader. […] The signal vs. compound concentration is used to determine the IC50.

Flt-3 kinase = Flt-3 kinase (Homo sapiens (Human), UniProt P36888); assay: Flt-3 kinase biochemical activity assay (AlphaScreen, biotin-(E4Y)10 phosphorylation); conditions: 100 μM ATP
Sequence of Flt-3 kinase (P36888 27-993): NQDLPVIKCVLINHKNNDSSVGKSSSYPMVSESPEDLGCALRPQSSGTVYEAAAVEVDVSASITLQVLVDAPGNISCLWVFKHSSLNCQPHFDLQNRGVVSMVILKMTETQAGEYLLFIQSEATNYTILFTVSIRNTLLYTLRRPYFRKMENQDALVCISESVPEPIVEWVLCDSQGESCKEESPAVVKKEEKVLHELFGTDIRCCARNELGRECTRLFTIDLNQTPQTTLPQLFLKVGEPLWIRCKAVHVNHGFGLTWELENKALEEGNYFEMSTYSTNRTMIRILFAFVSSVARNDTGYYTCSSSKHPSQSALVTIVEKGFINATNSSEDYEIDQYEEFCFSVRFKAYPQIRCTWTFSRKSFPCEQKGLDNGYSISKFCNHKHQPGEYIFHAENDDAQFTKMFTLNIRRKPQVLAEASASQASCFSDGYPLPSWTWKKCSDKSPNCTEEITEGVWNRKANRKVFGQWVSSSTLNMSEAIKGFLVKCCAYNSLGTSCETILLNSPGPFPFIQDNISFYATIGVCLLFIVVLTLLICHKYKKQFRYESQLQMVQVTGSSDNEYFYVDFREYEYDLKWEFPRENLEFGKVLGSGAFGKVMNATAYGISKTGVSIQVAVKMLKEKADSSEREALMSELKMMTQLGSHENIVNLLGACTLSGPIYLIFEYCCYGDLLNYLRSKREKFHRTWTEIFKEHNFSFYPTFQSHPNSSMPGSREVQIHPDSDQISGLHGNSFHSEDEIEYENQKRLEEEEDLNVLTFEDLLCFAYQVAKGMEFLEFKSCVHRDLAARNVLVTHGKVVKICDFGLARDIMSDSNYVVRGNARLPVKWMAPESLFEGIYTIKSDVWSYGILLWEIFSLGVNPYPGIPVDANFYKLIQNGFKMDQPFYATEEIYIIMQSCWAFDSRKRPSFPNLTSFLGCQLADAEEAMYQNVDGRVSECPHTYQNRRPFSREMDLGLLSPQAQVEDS
Procedure: In one assay the biochemical activity IC50 values are determined with respect to inhibition of Flt-3 kinase activity, where inhibition of phosphorylation of a peptide substrate is measured as a function of compound concentration. Compounds to be tested, dissolved in DMSO (1 μL), are added to a white 384-well plate (Costar #3705). Working stocks of Flt-3 kinase (Invitrogen), biotin-(E4Y)10 substrate (Upstate Biotech, Cat#12-440), and ATP (Sigma, Cat#A-3377) are prepared in 25 mM Hepes pH 7.5, 5 mM MgCl2, 5 mM MnCl2, 1 mM DTT, and 0.01% Tween-20. All components are added to the 384-well plate for a final concentration of 1 ng/well Flt-3, 30 nM biotin-(E4Y)10 and 100 μM ATP in a volume of 20 μL. Each sample is at 5% DMSO. The plate is then incubated for 1 hour at room temperature. Just before use, working stocks of donor and acceptor beads from the AlphaScreen PY20 Detection Kit (PerkinElmer, Cat#676601M) are prepared in 25 mM Hepes pH 7.5, pH 7.4, 100 mM EDTA. 0.3% BSA. To stop the reaction, the plate is uncovered in the dark and 5 μL of Donor Beads solution (Streptavidin beads) is added to each well. The plate is incubated at room temperature for 20 minutes. Five microliters of Acceptor Beads solution (PY20 coated beads) are then added to each well. The final concentration of each bead is 10 μg/mL. The plates are incubated at room temperature for 60 minutes. Fluorescence signal is recorded on the Envision reader. Phosphorylated substrate results in binding of the PY20 antibody and association of the donor and acceptor beads such that signal correlates with kinase activity. The signal vs. compound concentration is used to determine the IC50.

BCR-FMS/BaF3 cells = BCR-FMS/BaF3 cells (Homo sapiens, UniProt P07333); assay: BCR-FMS/BaF3 cell proliferation assay (ATPlite); format: cell-based; conditions: read-out: Cell based (IC50 μM) BCR/BaF3 (Fms); BCR-FMS/BaF3 cells, 3 days
Sequence of BCR-FMS/BaF3 cells (P07333 20-972 limits assumed, change not shown): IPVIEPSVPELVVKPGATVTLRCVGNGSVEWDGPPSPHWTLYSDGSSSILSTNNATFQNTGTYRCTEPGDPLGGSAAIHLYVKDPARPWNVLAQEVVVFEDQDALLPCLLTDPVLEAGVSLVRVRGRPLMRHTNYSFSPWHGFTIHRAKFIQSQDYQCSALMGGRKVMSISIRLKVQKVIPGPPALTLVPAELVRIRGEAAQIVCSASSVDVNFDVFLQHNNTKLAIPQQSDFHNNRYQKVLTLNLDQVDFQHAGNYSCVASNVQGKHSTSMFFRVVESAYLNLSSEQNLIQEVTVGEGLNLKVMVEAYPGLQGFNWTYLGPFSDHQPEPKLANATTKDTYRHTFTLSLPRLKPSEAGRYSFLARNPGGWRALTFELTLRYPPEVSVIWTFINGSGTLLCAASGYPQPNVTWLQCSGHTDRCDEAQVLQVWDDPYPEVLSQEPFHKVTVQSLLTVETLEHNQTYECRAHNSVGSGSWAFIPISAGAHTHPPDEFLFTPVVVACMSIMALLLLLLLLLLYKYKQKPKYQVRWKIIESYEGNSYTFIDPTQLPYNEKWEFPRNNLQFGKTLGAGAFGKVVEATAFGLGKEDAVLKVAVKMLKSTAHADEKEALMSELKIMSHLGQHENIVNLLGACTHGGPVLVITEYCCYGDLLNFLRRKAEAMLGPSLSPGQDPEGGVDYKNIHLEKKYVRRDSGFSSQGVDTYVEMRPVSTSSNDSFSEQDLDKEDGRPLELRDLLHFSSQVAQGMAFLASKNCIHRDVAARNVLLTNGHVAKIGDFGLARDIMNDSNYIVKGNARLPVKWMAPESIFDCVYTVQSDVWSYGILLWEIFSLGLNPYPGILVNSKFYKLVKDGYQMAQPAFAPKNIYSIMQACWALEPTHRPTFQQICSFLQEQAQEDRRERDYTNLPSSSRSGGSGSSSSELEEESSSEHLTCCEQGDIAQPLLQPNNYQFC
Procedure: Compounds are assessed in a variety of cell based assays. For example BCR-FMS/BaF3, BCR-KIT/BaF3, M-NFS-60, M-07e, and BAC1.2F5 cell proliferation assays are used to assess inhibitory activity of Fms or Kit and MV-4-11 cell proliferation assay is used to assess inhibitory activity in Flt-3. […] On day 1, cells are counted, then centrifuged in a conical tube for 5 minutes at 1000 rpm. The supernatant is removed and cells are re-suspended as follows: • BCR-FMS/BaF3 and BCR-KIT/BaF3: resuspend in growth media+1 mg/mL G418 (without WEHI/IL-3) to 2×10^5 cells/mL. • M-NFS-60: resuspend in growth media +62 ng/mL murine M-CSF to 5×10^5 cells/mL. • M-07e: resuspend in growth media +200 ng/mL human SCF to 5×10^5 cells/mL. • BAC1.2F5: resuspend in growth media +36 ng/mL murine M-CSF to 1.4×10^5 cells/mL. • MV-4-11: resuspend in growth media +10% FBS to 5×10^5 cells/mL. […] On day 2, compound at a maximum concentration of 5 mM is serially diluted 1:3 for a total of 8 point titration with DMSO as a control. A 1 μL aliquot of each dilution point is added to 249 μL growth media and 50 μL is added to a well containing cells, providing 10 μM compound for the maximum concentration point. The cells are incubated for 3 days at 37° C. in 5% CO2. […] ATPlite is added to each well as follows: • BCR-FMS/BaF3 and BCR-KIT/BaF3: 25 μL per well. • M-NFS-60: 25 μL per well. • M-07c: 40 μL per well. • BAC1.2F5: 50 μL per well. • MV-4-11: 40 μL per well. The cells are incubated at room temperature for 10 minutes, then luminescence is read on Safire reader. The measured luminescence correlates directly with cell number, such that the reading as a function of compound concentration is used to determine the IC50 value.

Measured: IC50

Sequence of Fms kinase (P07333 20-972): as the sequence (P07333 20-972 limits assumed, change not shown) above

FC(F)(F)c1cnc2[nH]cc(Cc3ccc(NCc4ccc(C(F)(F)F)nc4)nc3)c2c1 [Compound P-1644, (6-Trifluoromethyl-pyridin-3-ylmethyl)-[5-(5-trifluoromethyl-1H-pyrrolo[2,3-b]pyridin-3-ylmethyl)-pyridin-2-yl]-amine]
< 0.1 µM: all assays above

COc1ncc(CNc2ccc(Cc3c[nH]c4ncc(C(F)(F)F)cc34)c(F)n2)cc1F [Compound P-1646, (5-Fluoro-6-methoxy-pyridin-3-ylmethyl)-[6-fluoro-5-(5-trifluoromethyl-1H-pyrrolo[2,3-b]pyridin-3-ylmethyl)-pyridin-2-yl]-amine]
< 0.1 µM: all assays above

Fc1cc(CNc2ncc(Cc3c[nH]c4ncc(Cl)cc34)cn2)cc(C(F)(F)F)c1 [Compound P-2009, [5-(5-Chloro-1H-pyrrolo[2,3-b]pyridin-3-ylmethyl)-pyrimidin-2-yl]-(3-fluoro-5-trifluoromethyl-benzyl)-amine]
< 0.1 µM: all assays above
